Legend:
D(3) dopamine receptor = D(3) dopamine receptor (Homo sapiens, UniProt P35462); assay: Displacement of [3H]7-OH-DPAT from human Dopamine receptor D3
D(4) dopamine receptor = target: T1, D(4) dopamine receptor (Homo sapiens, UniProt P21917); assay: Displacement of [3H]spiperone from human Dopamine receptor D4
T1 sequence (P21917 whole entry): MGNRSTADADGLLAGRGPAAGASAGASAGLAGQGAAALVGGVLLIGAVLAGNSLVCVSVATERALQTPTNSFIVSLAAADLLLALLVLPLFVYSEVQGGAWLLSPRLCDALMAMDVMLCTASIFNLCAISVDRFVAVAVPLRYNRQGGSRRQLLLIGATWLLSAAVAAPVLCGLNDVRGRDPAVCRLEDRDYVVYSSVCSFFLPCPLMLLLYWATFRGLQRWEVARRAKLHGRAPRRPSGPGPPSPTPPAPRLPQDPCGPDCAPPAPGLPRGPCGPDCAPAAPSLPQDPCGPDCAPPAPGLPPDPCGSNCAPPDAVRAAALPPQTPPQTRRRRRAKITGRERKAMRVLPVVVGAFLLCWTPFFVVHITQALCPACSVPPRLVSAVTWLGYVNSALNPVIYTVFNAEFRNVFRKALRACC

Chain of D(3) dopamine receptor (P35462 as listed by the source): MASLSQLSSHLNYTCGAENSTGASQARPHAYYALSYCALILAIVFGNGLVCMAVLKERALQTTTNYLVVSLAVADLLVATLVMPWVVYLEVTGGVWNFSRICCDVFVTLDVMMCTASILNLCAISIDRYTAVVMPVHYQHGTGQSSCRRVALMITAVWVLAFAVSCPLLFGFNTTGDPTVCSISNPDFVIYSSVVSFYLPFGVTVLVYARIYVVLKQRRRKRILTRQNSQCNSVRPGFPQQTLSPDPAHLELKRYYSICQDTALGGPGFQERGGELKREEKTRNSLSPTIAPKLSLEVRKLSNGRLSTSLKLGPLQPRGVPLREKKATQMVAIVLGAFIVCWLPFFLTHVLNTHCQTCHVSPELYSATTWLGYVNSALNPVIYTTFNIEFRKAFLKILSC

Structure (SMILES) | pKi (D(3) dopamine receptor) | pKi (D(4) dopamine receptor)
O=C(CCCN1CCC(CO)(c2ccc(Cl)cc2)CC1)c1ccc(F)cc1 | 6.96 | 7.11
O=C(CCC[n+]1ccc(-c2ccc(Cl)cc2)cc1)c1ccc(F)cc1 | < 6 | < 6
O=C(CCCN1CCC(CO)(c2ccc(Cl)cc2)C1)c1ccc(F)cc1 (configuration not stated) | 6.78 | 7.62
O=C(CCCN1CCC(c2ccc(Cl)cc2)C1)c1ccc(F)cc1 (configuration not stated) | – | 7.82
O=C(CCCN1CCC(O)(Cc2ccc(Cl)cc2)CC1)c1ccc(F)cc1 | 8.05 | 7.23
O=C(CCCN1CCC(C(O)c2ccc(Cl)cc2)CC1)c1ccc(F)cc1 (configuration not stated) | 7.11 | 6.91
O=C(CCCN1CCC(c2ccc(Cl)cc2)CC1)c1ccc(F)cc1 | 7.34 | 7.59
CN(CCCC(=O)c1ccc(F)cc1)CCCC(O)c1ccc(Cl)cc1 (configuration not stated) | 6.79 | 6.72
O=C(CCCN1CCC(CCO)(c2ccc(Cl)cc2)C1)c1ccc(F)cc1 (configuration not stated) | 7.49 | 6.71

Reference: BindingDB's records for doi:10.1021/jm0301033 (Florida A and M University, 2004)
